{"source": "patent US20030083469A1", "about": "“Allosteric control of nuclear hormone receptors” (The Salk Institute for Biological Studies, priority 1995, published 2003)", "biological_target": "T1, RXR-T3R heterodimer (Homo sapiens, UniProt P19793)", "T1 construct": "made in house", "T1 sequence (P19793 1-462)": "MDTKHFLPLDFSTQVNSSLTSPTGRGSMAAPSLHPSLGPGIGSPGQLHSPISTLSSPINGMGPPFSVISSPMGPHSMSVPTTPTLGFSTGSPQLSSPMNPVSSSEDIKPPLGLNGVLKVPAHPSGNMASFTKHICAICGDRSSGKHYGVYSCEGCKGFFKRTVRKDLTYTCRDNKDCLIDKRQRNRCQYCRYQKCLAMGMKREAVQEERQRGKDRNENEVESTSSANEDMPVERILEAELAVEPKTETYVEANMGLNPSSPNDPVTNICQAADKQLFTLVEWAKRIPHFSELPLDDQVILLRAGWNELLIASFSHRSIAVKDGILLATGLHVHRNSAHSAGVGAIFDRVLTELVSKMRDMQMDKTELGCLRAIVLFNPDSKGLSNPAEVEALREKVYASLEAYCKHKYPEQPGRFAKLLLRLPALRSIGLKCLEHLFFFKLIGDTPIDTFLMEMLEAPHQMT", "T1 sequence (P04625 1-408 partner)": "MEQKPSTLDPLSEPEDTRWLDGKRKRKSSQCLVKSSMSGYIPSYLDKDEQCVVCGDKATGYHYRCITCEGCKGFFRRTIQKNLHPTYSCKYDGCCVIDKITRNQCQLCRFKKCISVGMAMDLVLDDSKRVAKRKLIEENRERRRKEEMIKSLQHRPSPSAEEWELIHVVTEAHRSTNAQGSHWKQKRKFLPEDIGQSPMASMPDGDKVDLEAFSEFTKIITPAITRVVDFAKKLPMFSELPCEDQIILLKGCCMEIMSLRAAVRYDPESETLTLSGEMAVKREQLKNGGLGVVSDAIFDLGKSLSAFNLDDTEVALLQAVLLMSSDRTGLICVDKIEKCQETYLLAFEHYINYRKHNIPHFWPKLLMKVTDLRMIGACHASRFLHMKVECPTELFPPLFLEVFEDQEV", "assay": "Ligand binding assay with RXR-T3R heterodimer", "design": "species or system human GST-hRXRα, chicken T3Rα1"}
{"smiles": "CC=C(c1ccc(C(=O)O)cc1)c1cc2c(cc1C)C(C)(C)CCC2(C)C", "note": "[LG69, 4-{1-(3,5,5,8,8-pentamethyl-5,6,7,8-tetrahydro-2-napthalenyl)-1-propenyl}benzoic acid]", "values": [{"measurement": "change in [3H] LG69 binding", "setting": "T3R with 1 μM T3 added", "value": "strongly diminished"}, {"measurement": "change in [3H] LG69 binding", "setting": "unliganded T3R", "value": "modest reduction"}]}
